From patent publication US10575526B2 (priority 2004, dated 2020)

Assays:
[1] = system: SAR genes, WIR2 (PR5) and WCI3; experiment: Time-course Northern blot analysis of SAR gene induction in glyphosate tolerant wheat; conditions: leaf tissues of glyphosate tolerant wheat; INA 200 ppm in 0.1% surfactant blank
[2] = system: leaf rust spores (Puccinia triticina); experiment: Leaf rust infection of treated glyphosate tolerant wheat in the SAR study; format: in vivo; conditions: glyphosate tolerant wheat inoculated one day after treatment; WeatherMAX 0.75 lb/acre, INA 200 ppm
Septoria = experiment: In vitro fungal cell growth on media containing glyphosate; format: cell-based; conditions: crop of interest Wheat
[3] = Glyphosate residue analysis in RR wheat; format: in vivo
Excerpt: (§1) The selection of application rates that are effective for a specific plant pathogen is within the skill of the ordinary agricultural scientist. […] Useful application rates for the glyphosate compositions employed can depend upon all of the above conditions.

[4] = system: Common rust or Southern rust spores (Puccinia sorghi, Puccinia polysora); experiment: Field tests of glyphosate on rust diseases of Roundup Ready corn nk603; format: in vivo; conditions: 1 to 9 scale
Pseudocercosporella = experiment: In vitro fungal cell growth on media containing glyphosate; format: cell-based; conditions: crop of interest Wheat
corn EPSPS [5] = conditions: read-out: Ki for glyphosate; cited from earlier work
[6] = Glyphosate residue analysis in RR soybean; format: in vivo; conditions: 3 × 0.75 lb, V3/R1/PH
Excerpt: as §1

[7] = Glyphosate residue analysis in RR cotton; format: in vivo; conditions: 3 × 1.5 lb, OT/PD/PH, seed
Excerpt: as §1

Rhizoctonia = experiment: In vitro fungal cell growth on media containing glyphosate; format: cell-based; conditions: crop of interest Wheat/potato
Fusarium = experiment: as above; format: cell-based; conditions: crop of interest Wheat/potato
Puccinia spores [8] = experiment: Translocation of glyphosate to shielded wheat leaf for leaf rust prevention; format: in vivo
Excerpt: In the data shown in FIG. 1, the top fully expanded wheat leaf was shielded from Roundup® spray (0-1×, 1× at 0.75 lb ae/a) followed by inoculation of wheat rust spores to the shielded leaf at 1 day after treatment (DAT).
14C-glyphosate is sprayed over-the-top to wheat plants using field application conditions and use rates. The top fully-expanded leaf (one leaf) is shielded from the spray (the untreated leaf).

[9] = Glyphosate residue analysis in RR canola; format: in vivo; conditions: 0.8 lb, seed
Excerpt: as §1

rust spores = experiment: Glyphosate as post-infection treatment of glyphosate tolerant wheat; format: in vivo; conditions: evaluated 11 DAI
Protocol: Depending on the treatment to be used, the spores are then allowed to germinate. […] Disease incidence is evaluated 11 DAI.

[10] = Glyphosate residue analysis in RR sugarbeet; format: in vivo
Excerpt: as §1

Pyricularia = format: cell-based; conditions: growth media, crop of interest Rice
[11] = system: Asian soybean rust (Phakopsora pachyrhizi); experiment: Field observation of Asian soybean rust in glyphosate tolerant soybean; format: in vivo; conditions: Brazil
Protocol: Asian soybean rust is an aggressive foliar disease of soybean that occurs where soybeans are grown in Asia, and more recently, in southern Africa, Paraguay, Argentina and Brazil. Phakopsora pachyrhizi, the fungus that causes Asian soybean rust, has been found in the continental United States. Glyphosate compositions are used to control, prevent or treat disease in glyphosate tolerant soybean plants (RR) under field conditions. A single application rate of Roundup® (1×=0.75 lbs ae/acre or 0.84 kg ae/ha) or multiple applications are applied times to a rust susceptible variety of soybean. The Roundup® treated plants are not treated with any fungicide and allowed to be naturally infected with Asian soybean rust. In addition, glyphosate-tolerant soybean plants can be grown in a greenhouse and manually infected with spores to induced disease infection.
Rust development is delayed 7-10 days in RR soybean (sprayed at ˜V4 stage), as compared to conventional soy. Rust severity is less in RR soybean as compared to conventional soybean in early season observations.

Botrytis = experiment: In vitro fungal cell growth on media containing glyphosate; format: cell-based; conditions: crop of interest Veg/strawberry
Asian soybean rust [12] = experiment: Greenhouse study of glyphosate and Opera fungicide on Asian soybean rust; format: in vivo, Phakopsora pachyrhizi
[13] = Glyphosate residue analysis in RR rice; format: in vivo
Excerpt: as §1

Phytophthora = experiment: In vitro fungal cell growth on media containing glyphosate; format: cell-based; conditions: crop of interest Potato/soy
Puccinia spores [14] = experiment: Tissue glyphosate concentration and disease prevention in glyphosate tolerant wheat; format: in vivo
Protocol: Four different regimens are employed. […] The inoculated plants are then incubated for 24 hours at 100% relative humidity for germination of the spores. […] Disease conditions are evaluated macroscopically for pustule development and lesion development.

Asian soybean rust [15] = experiment: Field trial of glyphosate and Opera fungicide on Asian soybean rust; format: in vivo, Phakopsora pachyrhizi
Protocol: A field study was conducted to further confirm the greenhouse study. The same cultivars were planted in three replicated plots and treatments as described in the greenhouse study. […] All treatments were effective in preventing disease on RR8045 cultivar.

Gaeumannomyces = experiment: In vitro fungal cell growth on media containing glyphosate; format: cell-based; conditions: crop of interest Wheat
[16] = Glyphosate residue analysis in RR corn (GA21); format: in vivo; conditions: 2 × 0.75 lb
Excerpt: as §1

corn EPSPS [17] = experiment: Kinetic studies of EPSPS inhibition by glyphosate; format: biochemical; conditions: equivalent of 0.5 μM
Excerpt: Structural studies of EPSPS based on X-ray crystallography have identified key amino acids involved in catalysis.

Puccinia = experiment: In vitro fungal cell growth on media containing glyphosate; format: cell-based; conditions: crop of interest Wheat
[18] = Glyphosate residue analysis in RR potato; format: in vivo; conditions: tubers
Excerpt: as §1

[19] = system: Verticillium wilt (Verticillium dahliae); experiment: Verticillium wilt control in Roundup Ready cotton; format: in vivo; conditions: three genetic backgrounds, 22 ounces of WeatherMax Roundup at two and five true leaf stage, observed about three and four months after planting, versus adjacent untreated plot
Excerpt: The cotton seeds were planted and the emerged plants were sprayed with 22 ounces of WeatherMax Roundup® at the two and five true leaf stage. […] The treated plants continued to grow compared to the untreated plants that had shut down. […] Cotton plants suffering from other wilt diseases of cotton, especially Fusarium wilt disease, are expected to benefit from treatment with glyphosate.

With `O=C(O)c1cc(Cl)nc(Cl)c1` [INA, 2,6-dichloro isonicotinic acid] the “WCI3 gene induction (Northern blot)” value [1] was “induced” and the “leaf rust infection / resistance” value [2] was “did not confer leaf rust resistance”.

With `O=C(O)CNCP(=O)(O)O` [glyphosate, N-phosphonomethylglycine] the “In vitro EC90, ppm” value (Septoria) was <100 ppm, the “Gly (ppm)” value ([3]; 0.75 lb, 4 lf, forage) was 2.30 ppm and the “Gly (ppm)” value ([3]; 0.75 lb, 4 lf, grain) was 0.50 ppm. For the same molecule, the “Gly (ppm)” value ([3]; 0.75 lb, 4 lf, hay) was 1.20 ppm, the “Gly (ppm)” value ([3]; 0.75 lb, 4 lf, straw) was 0.50 ppm and the “Gly (ppm)” value ([3]; 2 × 0.75 lb, 4 lf/Preboot, forage) was 2.60 ppm. The “Gly (ppm)” value ([3]; 2 × 0.75 lb, 4 lf/Preboot, grain) was 7.50 ppm, the “Gly (ppm)” value ([3]; 2 × 0.75 lb, 4 lf/Preboot, hay) was 13.00 ppm and the “Gly (ppm)” value ([3]; 2 × 0.75 lb, 4 lf/Preboot, straw) was 5.30 ppm. For the same molecule, the average disease rating ([4]; hybrid corn, treatment #1 (pre-inoculation), 2× rate (1.5 lb./A), 1=resistant, 9=susceptible, control 4.1) was 3.6, the disease rating ([4]; hybrid corn, treatment #1 (pre-inoculation), 3× rate (2.25 lb./A), control 4.1) was 3.0 and the disease rating ([4]; hybrid corn, treatment #2 (14 days post inoculation), control 4.1) was 4.1. The disease rating ([4]; hybrid corn, treatment #3 (28 days post inoculation), control 4.1) was 3.9, the disease rating ([4]; inbred corn, post inoculation treatments, second value) was 4.9 and the disease rating ([4]; inbred corn, post inoculation treatments) was 4.4. For the same molecule, the average disease rating ([4]; inbred corn, treatment #1 (pre-inoculation), 2× rate, controls 5.0 and 4.9) was 4.0, the average disease rating ([4]; inbred corn, treatment #1 (pre-inoculation), 3× rate, controls 5.0 and 4.9) was 3.2 and the “In vitro EC90, ppm” value (Pseudocercosporella) was <100 ppm. The Ki (corn EPSPS [5]) was 500 nM, the “Gly (ppm)” value ([6]; forage) was 7.60 ppm and the “Gly (ppm)” value ([6]; hay) was 1.30 ppm. For the same molecule, the “Gly (ppm)” value ([6]; seed) was 0.80 ppm, the “Gly (ppm)” value [7] was 1.60 ppm and the “In vitro EC90, ppm” value (Rhizoctonia) was 1000 ppm. The “In vitro EC90, ppm” value (Fusarium) was 1000 ppm, the “tissue glyphosate at which complete disease prevention was attained” value (Puccinia spores [8]; shielded (untreated) wheat leaf, spray application of ½× of Roundup, inoculated 1DAT) was 1.3 ppm and the “disease incidence versus spray dose” value (Puccinia spores [8]; shielded wheat leaf, 11 days after inoculation, 0-1× spray) was “decrease in disease incidence with an increase in spray dose”. For the same molecule, the “Gly (ppm)” value [9] was 0.02 ppm, the development of pustules (rust spores; 1× glyphosate at 4DAI, lesions already present at treatment) was “no development of pustules” and the infection level (rust spores; wheat 3-leaf stage, 1× glyphosate after inoculation, untreated/surfactant between 10% and about 25%) was “either no infection or no progression to an existing infection”. For the same molecule, the “Gly (ppm)” value ([10]; 3 × 0.75, 2 lf/12 lf/12 lf + 30 d, beet) was 6.60 ppm, the “Gly (ppm)” value ([10]; 3 × 0.75, 2 lf/12 lf/12 lf + 30 d, tops) was 4.30 ppm and the “Gly (ppm)” value ([10]; 3 × 0.75 lb, 2 lf/6 lf/12 lf, beet) was 0.50 ppm. For the same molecule, the “Gly (ppm)” value ([10]; 3 × 0.75 lb, 2 lf/6 lf/12 lf, tops) was 0.40 ppm, the “In vitro EC90, ppm” value (Pyricularia) was 5000 ppm and the rust severity ([11]; RR soybean compared to conventional soybean, early season observations) was “less”. The “delay of rust development” value ([11]; RR soybean sprayed at ~V4 stage, compared to conventional soy) was 7 to 10 days, the “In vitro EC90, ppm” value (Botrytis) was <100 ppm and the “percent disease of Asian soybean rust” value (Asian soybean rust [12]; RR8000, Trt 2 glyp 1X every two weeks from V3, 14 d-1 spray) was 23.3%. For the same molecule, the “percent disease of Asian soybean rust” value (Asian soybean rust [12]; RR8000, Trt 2 glyp 1X every two weeks from V3, 28 d-2 sprays) was 41.7%, the “percent disease of Asian soybean rust” value (Asian soybean rust [12]; RR8000, Trt 2 glyp 1X every two weeks from V3, 42 d-3 sprays) was 48.3% and the “percent disease of Asian soybean rust” value (Asian soybean rust [12]; RR8000, Trt 2 glyp 1X every two weeks from V3, 56 d-4 sprays) was 88.3%. The “percent disease of Asian soybean rust” value (Asian soybean rust [12]; RR8000, Trt 3 glyp 2X every two weeks from V3, 14 d-1 spray) was 10.0%, the “percent disease of Asian soybean rust” value (Asian soybean rust [12]; RR8000, Trt 3 glyp 2X every two weeks from V3, 28 d-2 sprays) was 10.0% and the “percent disease of Asian soybean rust” value (Asian soybean rust [12]; RR8000, Trt 3 glyp 2X every two weeks from V3, 42 d-3 sprays) was 10.0%. For the same molecule, the “percent disease of Asian soybean rust” value (Asian soybean rust [12]; RR8000, Trt 3 glyp 2X every two weeks from V3, 56 d-4 sprays) was 30.0%, the “percent disease of Asian soybean rust” value (Asian soybean rust [12]; RR8045, Trt 2 glyp 1X every two weeks from V3, 14 d-1 spray) was 50.0% and the “percent disease of Asian soybean rust” value (Asian soybean rust [12]; RR8045, Trt 2 glyp 1X every two weeks from V3, 28 d-2 sprays) was 56.7%. For the same molecule, the “percent disease of Asian soybean rust” value (Asian soybean rust [12]; RR8045, Trt 2 glyp 1X every two weeks from V3, 42 d-3 sprays) was 71.7%, the “percent disease of Asian soybean rust” value (Asian soybean rust [12]; RR8045, Trt 2 glyp 1X every two weeks from V3, 56 d-4 sprays) was 86.7% and the “percent disease of Asian soybean rust” value (Asian soybean rust [12]; RR8045, Trt 3 glyp 2X every two weeks from V3, 14 d-1 spray) was 3.3%. The “percent disease of Asian soybean rust” value (Asian soybean rust [12]; RR8045, Trt 3 glyp 2X every two weeks from V3, 28 d-2 sprays) was 10.0%, the “percent disease of Asian soybean rust” value (Asian soybean rust [12]; RR8045, Trt 3 glyp 2X every two weeks from V3, 42 d-3 sprays) was 13.3% and the “percent disease of Asian soybean rust” value (Asian soybean rust [12]; RR8045, Trt 3 glyp 2X every two weeks from V3, 56 d-4 sprays) was 73.3%. For the same molecule, the “Gly (ppm)” value ([13]; 1.5 lb 5 lf, grain) was 0.05 ppm, the “Gly (ppm)” value ([13]; 1.5 lb 5 lf, straw) was 0.05 ppm and the “Gly (ppm)” value ([13]; 2 × 1.12 lb, 5 lf/pan ini, grain) was 3.00 ppm. The “Gly (ppm)” value ([13]; 2 × 1.12 lb, 5 lf/pan ini, straw) was 3.10 ppm, the “Gly (ppm)” value ([13]; 3 × 1.12 lb, 5 lf/pan ini/PH, grain) was 14.80 ppm and the “Gly (ppm)” value ([13]; 3 × 1.12 lb, 5 lf/pan ini/PH, straw) was 6.90 ppm. The “In vitro EC90, ppm” value (Phytophthora) was 1000 ppm, the pustule development (Puccinia spores [14]; 12 days after inoculation, wheat treated with 1× spray, inoculated 1 day or 14 days after treatment, controls about 25% to about 30%) was “less than 1%” and the “tissue concentration of glyphosate at which pustule development is prevented” value (Puccinia spores [14]; glyphosate tolerant wheat leaf) was “about 10 ppm”. For the same molecule, the “%_disease” value (Asian soybean rust [15]; RR8000, glyp 1X) was 23.3%, the “%_disease” value (Asian soybean rust [15]; RR8000, glyp 2X) was 10.0% and the “%_disease” value (Asian soybean rust [15]; RR8045, glyp 1X) was 0.0%. The “%_disease” value (Asian soybean rust [15]; RR8045, glyp 2X) was 1.7%, the “In vitro EC90, ppm” value (Gaeumannomyces) was 1000 ppm and the “Gly (ppm)” value ([16]; V4/V8, forage) was 0.73 ppm. The “Gly (ppm)” value ([16]; V4/V8, grain) was 0.07 ppm, the “Gly (ppm)” value ([16]; V4/V8, stover) was 1.30 ppm and the “Ki expressed as glyphosate in plant tissues” value (corn EPSPS [17]) was “approximately 0.15 ppm”. For the same molecule, the “In vitro EC90, ppm” value (Puccinia) was 5000 ppm, the “Gly (ppm)” value ([18]; 2 × 1.5 lb, 2 lf/row closure) was 4.10 ppm and the “Gly (ppm)” value ([18]; 3 × 1.5 lb, 2 lf/row clo/PH) was 8.60 ppm. For the same molecule, the wilt symptoms [19] was “reduced symptoms”.
